From patent US9533977B2, “Oxazolidinone derivative as CETP inhibitor, its preparation method, and pharmaceutical composition comprising the same” (DONG-A ST CO., LTD., priority 2013, dated 2017)

Biological target: T1, CETP (Homo sapiens, UniProt P11597)
T1 construct: from tissue; host or cells: human plasma from healthy men
T1 sequence (P11597 18-493): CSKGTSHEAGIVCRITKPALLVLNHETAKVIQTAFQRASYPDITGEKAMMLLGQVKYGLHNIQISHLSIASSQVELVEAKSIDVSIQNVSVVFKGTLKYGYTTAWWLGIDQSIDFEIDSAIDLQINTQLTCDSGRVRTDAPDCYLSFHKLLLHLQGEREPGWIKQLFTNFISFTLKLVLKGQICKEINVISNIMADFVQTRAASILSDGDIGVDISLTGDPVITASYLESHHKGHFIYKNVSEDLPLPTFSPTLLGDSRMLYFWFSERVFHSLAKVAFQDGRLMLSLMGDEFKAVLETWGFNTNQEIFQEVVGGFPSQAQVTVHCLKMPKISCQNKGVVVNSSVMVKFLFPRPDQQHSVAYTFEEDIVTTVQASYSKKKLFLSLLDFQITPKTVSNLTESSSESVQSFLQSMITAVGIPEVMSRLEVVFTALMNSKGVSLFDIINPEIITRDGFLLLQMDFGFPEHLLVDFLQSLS
Experiment: Inhibitory activity against CETP in human plasma (Roar CETP activity kit, fluorescence)
Type: biochemical
Conditions: plasma from healthy men diluted 1:10 in assay buffer, 37° C., 3 hrs, fluorescence 465/535 nm; read-out: IC50, Inhibition of CETP Activity in Human Plasma
Method: A CETP activity kit (#RB-CETP) was purchased from Roar […], Inc. A donor and an acceptor (each, 4 ul), a 10× assay buffer (177 ul), and each of dilutions of test compounds in dimethylsulfoxide (DMSO, Sigma-Aldrich) (0.01 nM˜10000 nM) were added to each well of black round-bottom 96-well plates (Corning #3792). Plasma samples from healthy men were diluted in the assay buffer (1:10=plasma:assay buffer), and added to each well. The plates were sealed with a sealing film (Sigma-Aldrich, #Z369659), and incubated in a 37° C. incubator microplate shaker (#SLST-3, Seolin Bio) for 3 hrs. After removal of the sealing film, fluorescence was read on Spectra Max Gemini EM (Molecular devices) with an excitation wavelength of 465 nm and an emission wavelength of 535 nm. Measurements were calculated according to the following formula. Calculated value=(Fluorescence Intensity with both compound and plasma−Fluorescence Intensity with compound but without plasma)/(Fluorescence Intensity with plasma but without compound−Fluorescence Intensity with neither compound nor plasma)
From the calculated value, a sigmoidal curve (y=start+(end-start)x^n/k^n+x^n) was drawn using Origin Software (OriginLab Corporation, ver. 8.0724) to obtain IC50 values.

Compound | IC50 [µM]
Cc1noc(C)c1-c1cnc(N(C)C2CCCCC2)c(CN2C(=O)O[C@H](c3cc(C(F)(F)F)cc(C(F)(F)F)c3)[C@@H]2C)c1 [Example 57, (4S,5R)-5-[3,5-bis(trifluoromethyl)phenyl]-4-methyl-3-({[2-(methyl)(cyclohexyl-4-yl)amino]-5-(3,5-dimethylisoxazol-4-yl)pyridin-3-yl}methyl)-oxazolidin-2-one] | 0.0167
CCN(c1ncc(-c2c(C)nn(C)c2C)cc1CN1C(=O)O[C@H](c2cc(C(F)(F)F)cc(C(F)(F)F)c2)[C@@H]1C)C1CCCCC1 [Example 64, (4S,5R)-5-[3,5-bis(trifluoromethyl)phenyl]-3-({[2-(ethyl)(cyclohexyl)amino]-5-(1,3,5-trimethyl-1H-pyrazol-4-yl}pyridin-3-yl}methyl)-oxazolidin-2-one] | 0.0293
CCN(c1ncc(-c2c(C)n[nH]c2C)cc1CN1C(=O)O[C@H](c2cc(C(F)(F)F)cc(C(F)(F)F)c2)[C@@H]1C)C1CCCCC1 [Example 65, (4S,5R)-5-[3,5-bis(trifluoromethyl)phenyl]-4-methyl-3-({[2-(ethyl)(cyclohexyl-4-yl)amino]-5-(3,5-dimethyl-1H-pyrazol-4-yl)pyridin-3-yl}methyl)-oxazolidin-2-one] | 0.224
CCN(c1ncc(-c2cn[nH]c2)cc1CN1C(=O)O[C@H](c2cc(C(F)(F)F)cc(C(F)(F)F)c2)[C@@H]1C)C1CCCCC1 [Example 68, (4S,5R)-5-[3,5-bis(trifluoromethyl)phenyl]-4-methyl-3-({[2-(ethyl)(cyclohexyl)amino]-5-(1H-pyrazol-4-yl)pyridin-3-yl}methyl)-oxazolidin-2-one] | 0.334
CCOC(=O)c1c(C)noc1-c1cnc(N(CC)C2CCCCC2)c(CN2C(=O)O[C@H](c3cc(C(F)(F)F)cc(C(F)(F)F)c3)[C@@H]2C)c1 [Example 74] | 0.0632
CCN(c1ncc(-c2sccc2C)cc1CN1C(=O)O[C@H](c2cc(C(F)(F)F)cc(C(F)(F)F)c2)[C@@H]1C)C1CCCCC1 [Example 78, (4S,5R)-5-[3,5-bis(trifluoromethyl)phenyl]-4-methyl-3-({[2-(ethyl)(cyclohexyl)amino]-5-(3-methyl-thiophen-2-yl)pyridin-3-yl}methyl)-oxazolidin-2-one] | 0.0177
CCN(c1ncc(-c2cscn2)cc1CN1C(=O)O[C@H](c2cc(C(F)(F)F)cc(C(F)(F)F)c2)[C@@H]1C)C1CCCCC1 [Example 81, (4S,5R)-5-[3,5-bis(trifluoromethyl)phenyl]-4-methyl-3-({[2-(ethyl)(cyclohexyl)amino]-5-(thiazol-4-yl)pyridin-3-yl}methyl)-oxazolidin-2-one] | 0.0265
CCN(c1ncc(-c2ccsc2C#N)cc1CN1C(=O)O[C@@H](c2cc(C(F)(F)F)cc(C(F)(F)F)c2)[C@@H]1C)C1CCCCC1 [Example 82, 3-{5-({(4S,5S)-5-[3,5-bis(trifluoromethyl)phenyl]-4-methyl-2-oxo-oxazolidin-3-yl}methyl)-6-[(cyclohexyl)(ethyl)amino]pyridin-3-yl}-thiophene-2-carbonitrile] | 0.246
CCN(c1ncc(-c2c(N)noc2C)cc1CN1C(=O)O[C@H](c2cc(C(F)(F)F)cc(C(F)(F)F)c2)[C@@H]1C)C1CCCCC1 [Example 85, (4S,5R)-5-[3,5-bis(trifluoromethyl)phenyl]-4-methyl-3-({[2-(ethyl)(cyclohexyl)amino]-5-(3-amino-5-methyl-isoxazol-4-yl)pyridin-3-yl}methyl)-oxazolidin-2-one] | 0.0319
CCN(c1ncc(-c2cscc2C)cc1CN1C(=O)O[C@H](c2cc(C(F)(F)F)cc(C(F)(F)F)c2)[C@@H]1C)C1CCCCC1 [Example 86, (4S,5R)-5-[3,5-bis(trifluoromethyl)phenyl]-4-methyl-3-({[2-(ethyl)(cyclohexyl)amino]-5-(3-methyl-thiophen-4-yl)pyridin-3-yl}methyl)-oxazolidin-2-one] | 0.0304

The remaining compounds from weak to strong by IC50, led by results:

IC50 [µM] | Compound
0.169 | CCN(c1ncc(-c2c[nH]nc2C(F)(F)F)cc1CN1C(=O)O[C@H](c2cc(C(F)(F)F)cc(C(F)(F)F)c2)[C@@H]1C)C1CCCCC1 [Example 72, (4S,5R)-5-[3,5-bis(trifluoromethyl)phenyl]-4-methyl-3-({[2-(ethyl)(cyclohexyl)amino]-5-(3-(trifluoromethyl)-1H-pyrazol-4-yl)pyridin-3-yl}methyl)-oxazolidin-2-one]
0.151 | CCN(c1ncc(-c2cnn(C)c2)cc1CN1C(=O)O[C@H](c2cc(C(F)(F)F)cc(C(F)(F)F)c2)[C@@H]1C)C1CCCCC1 [Example 62, (4S,5R)-5-[3,5-bis(trifluoromethyl)phenyl]-4-methyl-3-({[2-(ethyl)(cyclohexyl)amino]-5-(1-methyl-1H-pyrazol-4-yl)pyridin-3-yl}methyl)-oxazolidin-2-one]
0.0874 | CCN(c1ncc(-c2cccn2C(=O)OC(C)(C)C)cc1CN1C(=O)O[C@@H](c2cc(C(F)(F)F)cc(C(F)(F)F)c2)[C@@H]1C)C1CCCCC1 [Example 76, t-butyl 2-{5-({(4S,5S)-5-[3,5-bis(trifluoromethyl)phenyl]-4-methyl-2-oxo-oxazolidin-3-yl}methyl)-6-[(cyclohexyl)(ethyl)amino]pyridin-3-yl}-1H-pyrrole-1-carboxylate]
0.0463 | CCN(c1ncc(-c2nnnn2C)cc1CN1C(=O)O[C@H](c2cc(C(F)(F)F)cc(C(F)(F)F)c2)[C@@H]1C)C1CCCCC1 [Example 66, (4S,5R)-5-[3,5-bis(trifluoromethyl)phenyl]-4-methyl-3-({[2-(ethyl)(cyclohexyl)amino]-5-(1-methyl-1H-tetrazol-5-yl)pyridin-3-yl}methyl)-oxazolidin-2-one]
0.0347 | CCN(c1ncc(-c2cc(C(F)(F)F)nn2C)cc1CN1C(=O)O[C@H](c2cc(C(F)(F)F)cc(C(F)(F)F)c2)[C@@H]1C)C1CCCCC1 [Example 60, (4S,5R)-5-[3,5-bis(trifluoromethyl)phenyl]-4-methyl-3-({[2-(ethyl)(cyclohexyl-4-yl)amino]-5-(1-methyl-1H-3-(trifluoromethyl)-pyrazol-5-yl)pyridin-3-yl}methyl)-oxazolidin-2-one]
0.0311 | CCN(c1ncc(-c2ccc(C)o2)cc1CN1C(=O)O[C@H](c2cc(C(F)(F)F)cc(C(F)(F)F)c2)[C@@H]1C)C1CCCCC1 [Example 75, (4S,5R)-5-[3,5-bis(trifluoromethyl)phenyl]-4-methyl-3-({[2-(ethyl)(cyclohexyl)amino]-5-(2-methyl-furan-5-yl)pyridin-3-yl}methyl)-oxazolidin-2-one]
0.0243 | CCN(c1ncc(-c2ccc(C)s2)cc1CN1C(=O)O[C@H](c2cc(C(F)(F)F)cc(C(F)(F)F)c2)[C@@H]1C)C1CCCCC1 [Example 79, (4S,5R)-5-[3,5-bis(trifluoromethyl)phenyl]-4-methyl-3-({[2-(ethyl)(cyclohexyl)amino]-5-(2-methyl-thiophen-5-yl)pyridin-3-yl}methyl)-oxazolidin-2-one]
0.022 | CCN(c1ncc(-c2cccs2)cc1CN1C(=O)O[C@H](c2cc(C(F)(F)F)cc(C(F)(F)F)c2)[C@@H]1C)C1CCCCC1 [Example 80, (4S,5R)-5-[3,5-bis(trifluoromethyl)phenyl]-4-methyl-3-({[2-(ethyl)(cyclohexyl)amino]-5-(thiophen-2-yl)pyridin-3-yl}methyl)-oxazolidin-2-one]
0.0189 | CCN(c1ncc(-c2cc(C)cs2)cc1CN1C(=O)O[C@H](c2cc(C(F)(F)F)cc(C(F)(F)F)c2)[C@@H]1C)C1CCCCC1 [Example 63, (4S,5R)-5-[3,5-bis(trifluoromethyl)phenyl]-4-methyl-3-({[2-(ethyl)(cyclohexyl)amino]-5-(3-methyl-thiophen-5-yl)pyridin-3-yl}methyl)-oxazolidin-2-one]
0.0067 | CCN(c1ncc(-c2ccc(C#N)s2)cc1CN1C(=O)O[C@@H](c2cc(C(F)(F)F)cc(C(F)(F)F)c2)[C@@H]1C)C1CCCCC1 [Example 71, 5-{5-({(4S,5S)-5-[3,5-bis(trifluoromethyl)phenyl]-4-methyl-2-oxo-oxazolidin-3-yl}methyl)-6-[(cyclohexyl)(ethyl)amino]pyridin-3-yl}-thiophene-2-carbonitrile]
0.0057 | CCN(c1ncc(-c2ccnn2C)cc1CN1C(=O)O[C@H](c2cc(C(F)(F)F)cc(C(F)(F)F)c2)[C@@H]1C)C1CCCCC1 [Example 59, (4S,5R)-5-[3,5-bis(trifluoromethyl)phenyl]-4-methyl-3-({[2-(ethyl)(cyclohexyl)amino]-5-(1-methyl-1H-pyrazol-5-yl)pyridin-3-yl}methyl)-oxazolidin-2-one]
